Measured values taken from ChEMBL document CHEMBL3301361, “Experimental in vitro DMPK and physicochemical data on a set of publicly disclosed compounds”.
≈ marks a conversion by molar mass, not a printed value.

Legend:
[1] = in vitro; settings: human
[2] = physchem; settings: octan-1-ol/water
[3] = in vitro; settings: human, hepatocytes
[4] = in vitro; settings: SD, HW or BN, rat, plasma
[5] = in vitro; settings: hepatocytes
[6] = in vitro; settings: human, plasma
[7] = physchem
[8] = physchem; settings: pH 7.4 buffer
[9] = in vitro; settings: Beagle, dog, plasma

SMILES | microsomal CLint ([1]; liver microsomes) [µL/min/mg] | logD ([2]; pH 7.4, LogD7.4) | fraction unbound at 5 h [4] | hepatocyte CLint [5] [µL/min/1e6 cells] | fraction unbound at 5 h ([6]; PPB) | pKa [7] | also measured
Cc1cc(-c2ccc(Cl)c(C(=O)NCC3(O)CCCCCC3)c2)nn1C[C@H](O)CN | < 3 | 0.57 | 0.309 | < 3 | 0.304 | 8.6 | hepatocyte CLint [3]: < 3 µL/min/1e6 cells
CC(C)(C)NC(=O)[C@@H]1C[C@@H]2CCCC[C@@H]2CN1C[C@@H](O)[C@H](Cc1ccccc1)NC(=O)[C@H](CC(N)=O)NC(=O)c1ccc2ccccc2n1 |  |  | 0.0048 |  | 0.0114 | 7.14 | solubility thermodynamic [8]: 36.3 µM (≈ 24.4 µg/mL)
Cc1ccc(C(=O)N2CC3CNCC(C2)O3)cc1NC(=O)CC12CC3CC(CC(C3)C1)C2 |  | 2.12 |  | 16.2 |  | 7.18 | microsomal CLint ([1]; microsomes): 71.2 µL/min/mg
Cc1nc2n(c(=O)c1CCN1CCC(c3noc4cc(F)ccc34)CC1)CCCC2 [RISPERIDONE] |  |  | 0.0544 |  |  | 8.49 | logD ([2]; pH 7.4): 2.05
CCc1cc(C(N)=S)ccn1 [ETHIONAMIDE] |  | 1.52 | 0.54 |  |  | 4.4 | 
C[C@H](CO)Nc1nc(SCc2cccc(F)c2F)nc2nc(N)cnc12 | 12 | 2.89 |  |  | 0.0447 | 4.2 | 
O=C(CN1C2=NCCN2c2ccccc21)c1ccc(Cl)cc1 |  | 2.62 |  |  | 0.339 | 9.1 | microsomal CLint ([1]; microsomes): 4 µL/min/mg
O=C(NCC12CC3CC(CC(C3)C1)C2)c1ccnc(N2CCNCC2)c1Cl | 73 |  |  | 7.2 |  | 8.7 | 
O=S(=O)(c1ccccc1)N1CCN(Cc2ccccc2)CC1 | 64 |  |  | > 150 |  | 5.6 | 
Cc1nc2ccc(-c3ccc(Cl)cc3)cc2c(=O)n1C[C@H]1CCCN(C(C)C)C1 |  | 3.3 |  | 3.8 |  | 10.1 | microsomal CLint ([1]; microsomes): < 3 µL/min/mg
CCCCc1nc2c(N)nc3ccccc3c2n1CC(C)C | < 3 | 3.82 | 0.0307 |  | 0.062 | 7.3 | 
CC(NC(C)(C)C)C(=O)c1cccc(Cl)c1 (centres undefined) [BUPROPION] |  |  |  | 72.4 |  | 8.4 | microsomal CLint ([1]; microsomes): 12 µL/min/mg; logD ([2]; pH 7.4): 2.12; fraction unbound at 5 h [6]: 0.54
O=C(CCCN1CCC(O)(c2ccc(Cl)cc2)CC1)c1ccc(F)cc1 [HALOPERIDOL] |  | 2.67 | 0.186 |  |  | 8.75 | solubility thermodynamic [8]: 50.1 µM (≈ 18.8 µg/mL)
COc1ccc(C2(c3cccc(-c4cncnc4)c3)N=C(C)C(N)=N2)cc1C (centres undefined) |  |  | 0.271 |  | 0.062 | 5.83 | 
CCOCc1nc2c(N)nc3ccccc3c2n1CC(C)(C)O [RESIQUIMOD] |  | 1.69 | 0.574 |  |  | 7.1 | solubility thermodynamic [8]: 417 µM (≈ 131 µg/mL)
COc1cccc(C(=O)NCCN2CCC(Oc3ccc(Cl)c(Cl)c3)CC2)c1 | 9 |  |  |  | 0.0008 | 7.4 | solubility thermodynamic [8]: 9.5 µM (≈ 4.02 µg/mL)
O=C(O)COc1ccc(C(F)(F)F)cc1CN1CCN(C(=O)c2ccccc2)CC1 | 4.7 |  |  | < 3 |  | 6.9 | 
CN(C)CCN1CCN(c2cc(C(=O)NC[C@H]3CC[C@H](CNC(=O)OC(C)(C)C)CC3)c3ccccc3n2)CC1 |  |  |  |  |  |  | fraction unbound at 5 h [9]: 0.0293
NC1=Nc2ccccc2Sc2ccccc21 |  |  |  |  |  | 7.2 | hepatocyte CLint [3]: 7.94 µL/min/1e6 cells
CC(C)c1nc2ccc(-c3ccc(F)cc3)cc2c(=O)n1C[C@H]1CCCN(C(C)C)C1 |  | 3.6 |  | 29.5 |  | 9.91 | microsomal CLint ([1]; microsomes): 12.9 µL/min/mg; solubility thermodynamic [8]: 537 µM (≈ 226 µg/mL)
NC1=Nc2ccccc2Sc2cccc(F)c21 |  |  |  |  | 0.0568 | 6.5 | hepatocyte CLint [3]: 13.2 µL/min/1e6 cells
CNCC[C@@H](Oc1cc(OC)ccc1C#N)c1ccccc1 | 26 | 0.87 |  | 142 |  | 10.2 | 
CNCC[C@@H](Oc1cc(Cl)ccc1C#N)c1ccccc1 |  |  |  | > 150 |  | 9.9 | 
